Source: US20170022171A1, “2,5-DISUBSTITUTED CYCLOPENTANECARBOXYLIC ACIDS AND THEIR USE” (Bayer Pharma Aktiengesellschaft, priority 2014, published 2017)

What was measured:
[1] = target: T1, MMP-10 (Homo sapiens, UniProt P09238); test: In vitro MMP-10 inhibition test; assay type: biochemical
T1 construct: purchased R&D Systems 910-MP
Source text: (§1) The MMP-mediated amidolytic cleavage of a suitable peptide substrate leads to an increase in fluorescent light here too. The signal intensity of the fluorescent light is directly proportional to the enzyme activity. The active concentration of a test compound at which half the enzyme is inhibited (50% signal intensity of the fluorescent light) is reported as the IC50 value.
(§2) Recombinant MMP-10 (from R&D Systems, 910-MP) is chemically activated in accordance with the manufacturer's instructions using APMA. 1 μl of the test compound to be analysed (as a solution in DMSO, suitable concentrations, for example, 1 nM to 30 μM) is pipetted into 24 μl of activated enzyme (final concentration, for example, 2 nM) in reaction buffer (50 mM Tris/HCl pH 7.5, 10 mM CaCl2, 150 mM NaCl, 0.05% Brij®-35) in a white 384-hole microtiter plate (MTP). The enzymatic reaction is started by adding the intramolecularly quenched Mca-Arg-Pro-Lys-Pro-Val-Glu-Nval-Trp-Arg-Lys(Dnp)-NH2 substrate (final concentration, for example, 10 μM; R&D Systems, ES-002), so as to result in a total test volume of 50 μl. The course of the MMP-10 reaction is measured by measuring the fluorescence intensity (excitation 320 nm, emission 410 nm) over a suitable period of time (for example over 120 min at a temperature of 32° C.).

[2] = target: T2, MMP-2 (Homo sapiens, UniProt P08253); test: In vitro MMP-2 inhibition test; assay type: biochemical
T2 construct: purchased R&D Systems 902-MP
T2 sequence (P08253 110-660): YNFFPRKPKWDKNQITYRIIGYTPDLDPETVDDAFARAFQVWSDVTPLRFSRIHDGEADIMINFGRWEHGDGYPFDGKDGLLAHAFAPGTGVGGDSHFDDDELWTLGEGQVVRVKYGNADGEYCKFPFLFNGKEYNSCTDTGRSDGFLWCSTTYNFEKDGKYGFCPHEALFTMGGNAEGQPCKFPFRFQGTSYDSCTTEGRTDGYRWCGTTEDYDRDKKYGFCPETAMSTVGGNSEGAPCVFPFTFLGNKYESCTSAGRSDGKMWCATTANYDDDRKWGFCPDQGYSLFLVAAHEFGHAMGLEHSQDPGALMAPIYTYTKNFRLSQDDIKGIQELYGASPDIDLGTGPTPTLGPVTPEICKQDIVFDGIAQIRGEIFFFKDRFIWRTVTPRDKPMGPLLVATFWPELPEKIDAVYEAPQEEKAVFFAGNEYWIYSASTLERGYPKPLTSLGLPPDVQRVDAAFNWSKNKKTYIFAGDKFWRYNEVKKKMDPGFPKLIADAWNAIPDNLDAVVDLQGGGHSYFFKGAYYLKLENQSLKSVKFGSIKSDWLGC
Source text: as §1
as §2, with “MMP-2” for “MMP-10”, “902-MP)” for “910-MP)”, “Mca-Pro-Leu-Gly-Leu-Dpa(Dnp)-Ala-Arg-NH2” for “Mca-Arg-Pro-Lys-Pro-Val-Glu-Nval-Trp-Arg-Lys(Dnp)-NH2”, “ES-001),” for “ES-002),”

T1 sequence (P09238 99-476): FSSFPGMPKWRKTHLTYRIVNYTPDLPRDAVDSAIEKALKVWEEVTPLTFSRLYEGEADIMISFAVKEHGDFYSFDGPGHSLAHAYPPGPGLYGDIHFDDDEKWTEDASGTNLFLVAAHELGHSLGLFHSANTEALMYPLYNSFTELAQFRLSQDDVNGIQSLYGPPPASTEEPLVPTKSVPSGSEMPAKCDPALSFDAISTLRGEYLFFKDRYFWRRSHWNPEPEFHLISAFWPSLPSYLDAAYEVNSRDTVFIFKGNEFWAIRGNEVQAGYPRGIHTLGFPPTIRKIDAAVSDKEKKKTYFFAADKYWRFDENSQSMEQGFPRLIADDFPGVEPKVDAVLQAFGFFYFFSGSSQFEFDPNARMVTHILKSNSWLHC

Row | Compound | IC50 [1] [nM] | IC50 [2] [nM]
1 | O=C(O)[C@H]1[C@H](Cn2nnc3ccc(C(F)(F)F)cc3c2=O)CC[C@@H]1C(=O)c1ccc(OCc2ccc(F)cc2)cc1 (racemic) [Example 12, (+/−)-(1RS,2RS,5SR)-2-{4-[(4-Fluorobenzyl)oxy]benzoyl}-5-{[4-oxo-6-(trifluoromethyl)-1,2,3-benzotriazin-3(4H)-yl]methyl}cyclopentanecarboxylic acid] | 15 | 42
2 | Cc1cccc(COc2ccc(C(=O)[C@H]3CC[C@@H](Cn4nnc5ccc(C(F)(F)F)cc5c4=O)[C@@H]3C(=O)O)cc2)c1 (racemic) [Example 15, (+/−)-(1RS,2RS,5SR)-2-{4-[(3-Methylbenzyl)oxy]benzoyl}-5-{[4-oxo-6-(trifluoromethyl)-1,2,3-benzotriazin-3(4H)-yl]methyl}cyclopentanecarboxylic acid] | 26 | 480
3 | O=C(O)[C@H]1[C@H](Cn2nnc3ccc(C(F)(F)F)cc3c2=O)CC[C@@H]1C(=O)c1ccc(OCc2cccc(C(F)(F)F)c2)cc1 (racemic) [Example 18, (+/−)-(1RS,2SR,5RS)-2-{[4-Oxo-6-(trifluoromethyl)-1,2,3-benzotriazin-3(4H)-yl]methyl}-5-(4-{[3-(trifluoromethyl)benzyl]oxy}benzoyl)cyclopentanecarboxylic acid] | 200 | 2000
4 | CCCCCSc1ccc(C(=O)[C@H]2CC[C@@H](Cn3nnc4ccc(C(F)(F)F)cc4c3=O)[C@@H]2C(=O)O)cc1 (racemic) [Example 88, (+/−)-(1RS,2SR,5RS)-2-{[4-Oxo-6-(trifluoromethyl)-1,2,3-benzotriazin-3(4H)-yl]methyl}-5-[4-(pentylsulphanyl)benzoyl]cyclopentanecarboxylic acid] | 22 | 190
5 | COc1cccc(COc2ccc(C(=O)[C@H]3CC[C@@H](Cn4nnc5ccc(C)cc5c4=O)[C@@H]3C(=O)O)cc2)c1 (racemic) [Example 106, (+/−)-(1RS,2RS,5SR)-2-{4-[(3-Methoxybenzyl)oxy]benzoyl}-5-[(6-methyl-4-oxo-1,2,3-benzotriazin-3(4H)-yl)methyl]cyclopentanecarboxylic acid] | 39 | 270
6 | O=C(O)[C@@H]1[C@@H](Cn2nnc3ccc(C(F)(F)F)cc3c2=O)CC[C@H]1C(=O)c1ccc(OCc2ccc(F)cc2)cc1 (single isomer, unassigned) [Example 13, (+)-(1RS,2RS,5SR)-2-{4-[(4-Fluorobenzyl)oxy]benzoyl}-5-{[4-oxo-6-(trifluoromethyl)-1,2,3-benzotriazin-3(4H)-yl]methyl}cyclopentanecarboxylic acid] | 22 | 80
7 | Cc1cccc(COc2ccc(C(=O)[C@@H]3CC[C@H](Cn4nnc5ccc(C(F)(F)F)cc5c4=O)[C@H]3C(=O)O)cc2)c1 (single isomer, unassigned) [Example 16, (+)-(1RS,2RS,5SR)-2-{4-[(3-Methylbenzyl)oxy]benzoyl}-5-{[4-oxo-6-(trifluoromethyl)-1,2,3-benzotriazin-3(4H)-yl]methyl}cyclopentanecarboxylic acid] | 37 | 970
8 | O=C(O)[C@@H]1[C@@H](Cn2nnc3ccc(C(F)(F)F)cc3c2=O)CC[C@H]1C(=O)c1ccc(OCc2cccc(C(F)(F)F)c2)cc1 (single isomer, unassigned) [Example 19, (+)-(1RS,2SR,5RS)-2-{[4-Oxo-6-(trifluoromethyl)-1,2,3-benzotriazin-3(4H)-yl]methyl}-5-(4-{[3-(trifluoromethyl)benzyl]oxy}benzoyl)cyclopentanecarboxylic acid] | 270 | 3800
9 | O=C(O)[C@@H]1[C@@H](Cn2nnc3ccc(C(F)(F)F)cc3c2=O)CC[C@H]1C(=O)c1ccc(OCc2ccc(Cl)cc2)cc1 (single isomer, unassigned) [Example 25, (+)-(1RS,2RS,5SR)-2-{4-[(4-Chlorobenzyl)oxy]benzoyl}-5-{[4-oxo-6-(trifluoromethyl)-1,2,3-benzotriazin-3(4H)-yl]methyl}cyclopentanecarboxylic acid] | 19 | 79
10 | O=C(O)[C@@H]1[C@@H](Cn2nnc3ccc(C(F)(F)F)cc3c2=O)CC[C@H]1C(=O)c1ccc(OCc2cccc(N3CCOC3=O)c2)cc1 (single isomer, unassigned) [Example 35, (+)-(1RS,2RS,5SR)-2-(4-{[3-(2-Oxo-1,3-oxazolidin-3-yl)benzyl]oxy}benzoyl)-5-{[4-oxo-6-(trifluoromethyl)-1,2,3-benzotriazin-3(4H)-yl]methyl}cyclopentanecarboxylic acid] | 53 | 450
11 | O=C(O)[C@@H]1[C@@H](Cn2nnc3ccc(C(F)(F)F)cc3c2=O)CC[C@H]1C(=O)c1ccc(OCC2CCCC2)cc1 (single isomer, unassigned) [Example 44, (+)-(1RS,2RS,5SR)-2-[4-(Cyclopentylmethoxy)benzoyl]-5-{[4-oxo-6-(trifluoromethyl)-1,2,3-benzotriazin-3(4H)-yl]methyl}cyclopentanecarboxylic acid] | 28 | 270
12 | O=C(O)[C@@H]1[C@@H](Cn2nnc3ccc(C(F)(F)F)cc3c2=O)CC[C@H]1C(=O)c1ccc(OCCC2CCCC2)cc1 (single isomer, unassigned) [Example 55, (+)-(1RS,2RS,5SR)-2-[4-(2-Cyclopentylethoxy)benzoyl]-5-{[4-oxo-6-(trifluoromethyl)-1,2,3-benzotriazin-3(4H)-yl]methyl}cyclopentanecarboxylic acid] | 50 | 1300
13 | CCCCCCOc1ccc(C(=O)[C@@H]2CC[C@H](Cn3nnc4ccc(C(F)(F)F)cc4c3=O)[C@H]2C(=O)O)cc1 (single isomer, unassigned) [Example 58, (+)-(1RS,2RS,5SR)-2-[4-(Hexyloxy)benzoyl]-5-{[4-oxo-6-(trifluoromethyl)-1,2,3-benzotriazin-3(4H)-yl]methyl}cyclopentanecarboxylic acid] | 29 | 580
14 | CCCCOc1ccc(C(=O)[C@@H]2CC[C@H](Cn3nnc4ccc(C(F)(F)F)cc4c3=O)[C@H]2C(=O)O)cc1 (single isomer, unassigned) [Example 67, (+)-(1RS,2RS,5SR)-2-(4-Butoxybenzoyl)-5-{[4-oxo-6-(trifluoromethyl)-1,2,3-benzotriazin-3(4H)-yl]methyl}cyclopentanecarboxylic acid] | 14 | 270
15 | COc1cccc(COc2ccc(C(=O)[C@@H]3CC[C@H](Cn4nnc5ccc(C)cc5c4=O)[C@H]3C(=O)O)cc2)c1 (single isomer, unassigned) [Example 107, (+)-(1RS,2RS,5SR)-2-{4-[(3-Methoxybenzyl)oxy]benzoyl}-5-[(6-methyl-4-oxo-1,2,3-benzotriazin-3(4H)-yl)methyl]cyclopentanecarboxylic acid] | 52 | 300
16 | (+)-(1RS,2RS,5SR)-2-{4-[Cyclohexyl)methyl)sulphanyl]benzoyl}-5-{[4-oxo-6-(trifluoromethyl)-1,2,3-benzotriazin-3(4H)-yl]methyl}cyclopentanecarboxylic acid [Example 86] | 160 | 4800
